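Cultured in 96-well plates, cells were exposed to test compound for 48 hours across five concentrations. Abbreviation: GI50, concentration required for 50% inhibition of growth.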 Calls of active or inactive are those of the source. Cut-off read from the data, not from the text of the source: active = GI50 up to about 1.1 µM and inactive = higher.
Legend:
Assay in all cases: NCI-60 cell line screen, 48 h
MDA-N = test system: MDA-N
786-0 = test system: 786-0
MCF7 = test system: MCF7
SK-MEL-28 = test system: SK-MEL-28
MDA-MB-435 = test system: MDA-MB-435
SK-OV-3 = test system: SK-OV-3
HOP-62 = test system: HOP-62
RXF 393 = test system: RXF 393
SF-295 = test system: SF-295
Malme-3M = test system: Malme-3M
EKVX = test system: EKVX
HL-60 = test system: HL-60
SNB-19 = test system: SNB-19
IGROV-1 = test system: IGROV-1
TK-10 = test system: TK-10
UO-31 = test system: UO-31
MDA-MB-231 = test system: MDA-MB-231
SF-268 = test system: SF-268
HCT-15 = test system: HCT-15
NCI-H460 = test system: NCI-H460
SK-MEL-2 = test system: SK-MEL-2
SR = test system: SR
K562 = test system: K562
Hs-578T = test system: Hs-578T
ACHN = test system: ACHN
SN12C = test system: SN12C
NCI/ADR-RES = test system: NCI/ADR-RES
CAKI-1 = test system: CAKI-1
BT-549 = test system: BT-549
SW-620 = test system: SW-620
NCI-H23 = test system: NCI-H23
UACC-257 = test system: UACC-257
HOP-92 = test system: HOP-92
HCT-116 = test system: HCT-116
T47D = test system: T47D
NCI-H522 = test system: NCI-H522
HT-29 = test system: HT-29
SNB-75 = test system: SNB-75
RPMI-8226 = test system: RPMI-8226
DU-145 = test system: DU-145
U-251 = test system: U-251
COLO 205 = test system: COLO 205
NCI-H226 = test system: NCI-H226
MOLT-4 = test system: MOLT-4
OVCAR-8 = test system: OVCAR-8
SF-539 = test system: SF-539
A549 = test system: A549
A498 = test system: A498
PC-3 = test system: PC-3
OVCAR-3 = test system: OVCAR-3
M14 = test system: M14
OVCAR-4 = test system: OVCAR-4
HCC 2998 = test system: HCC 2998
LOX IMVI = test system: LOX IMVI
OVCAR-5 = test system: OVCAR-5
SK-MEL-5 = test system: SK-MEL-5
CCRF-CEM = test system: CCRF-CEM
KM12 = test system: KM12
UACC-62 = test system: UACC-62

Measured: GI50

CCCCCCCCCCCCP(=O)(O)OCC(N)C(=O)O (stereo not given)
inactive: MDA-N 21.4 µM | 786-0 27.5 µM | MCF7 42.1 µM | SK-MEL-28 43.3 µM | MDA-MB-435 18.3 µM | SK-OV-3 21.6 µM | HOP-62 16.1 µM | RXF 393 48.1 µM | SF-295 17.4 µM | Malme-3M > 100 µM | EKVX 93.3 µM | HL-60 15.8 µM | SNB-19 16.6 µM | IGROV-1 30.1 µM | TK-10 33.3 µM | UO-31 12.3 µM | MDA-MB-231 16.4 µM | SF-268 23.9 µM | NCI-H460 23.7 µM | SK-MEL-2 27.9 µM | SR 24.2 µM | K562 39.4 µM | Hs-578T 20.2 µM | ACHN 40.3 µM | SN12C 18.9 µM | NCI/ADR-RES 31.4 µM | CAKI-1 49.9 µM | BT-549 29.6 µM | SW-620 40.3 µM | NCI-H23 48.9 µM | UACC-257 > 100 µM | HOP-92 25.4 µM | HCT-116 13.3 µM | T47D > 100 µM | NCI-H522 5.22 µM | HT-29 33.7 µM | SNB-75 11.4 µM | RPMI-8226 30.9 µM | DU-145 40.4 µM | U-251 11.4 µM | COLO 205 45.8 µM | NCI-H226 40.7 µM | MOLT-4 16.9 µM | OVCAR-8 35.5 µM | SF-539 20.7 µM | A549 24.8 µM | A498 23.5 µM | PC-3 16 µM | OVCAR-3 18.7 µM | M14 48.8 µM | OVCAR-4 76.2 µM | HCC 2998 30.5 µM | LOX IMVI 24.9 µM | OVCAR-5 34.1 µM | SK-MEL-5 32.5 µM
17.5 µM: HCT-15

COC(=O)C1CN=CN1CCc1ccccc1 (stereo not given)
inactive: MDA-N > 100 µM | 786-0 > 100 µM | MCF7 > 100 µM | SK-MEL-28 > 100 µM | MDA-MB-435 > 100 µM | SK-OV-3 > 100 µM | RXF 393 > 100 µM | SF-295 > 100 µM | CCRF-CEM > 100 µM | Malme-3M > 100 µM | EKVX > 100 µM | HL-60 > 100 µM | SNB-19 > 100 µM | IGROV-1 > 100 µM | TK-10 > 100 µM | UO-31 > 100 µM | MDA-MB-231 > 100 µM | KM12 > 100 µM | NCI-H460 > 100 µM | SK-MEL-2 > 100 µM | SR > 100 µM | K562 > 100 µM | Hs-578T > 100 µM | ACHN > 100 µM | NCI/ADR-RES > 100 µM | CAKI-1 > 100 µM | BT-549 > 100 µM | SW-620 > 100 µM | NCI-H23 > 100 µM | UACC-62 > 100 µM | UACC-257 > 100 µM | HOP-92 > 100 µM | HCT-116 > 100 µM | T47D > 100 µM | NCI-H522 > 100 µM | HT-29 > 100 µM | SNB-75 15.5 µM | RPMI-8226 > 100 µM | DU-145 > 100 µM | U-251 > 100 µM | COLO 205 > 100 µM | NCI-H226 > 100 µM | MOLT-4 > 100 µM | OVCAR-8 > 100 µM | SF-539 > 100 µM | A549 > 100 µM | A498 > 100 µM | PC-3 > 100 µM | OVCAR-3 > 100 µM | M14 > 100 µM | OVCAR-4 > 100 µM | HCC 2998 > 100 µM | LOX IMVI > 100 µM | OVCAR-5 > 100 µM | SK-MEL-5 > 100 µM
> 100 µM: HCT-15

CCCCCCCCCCCC/C=C\CC[C@@H](O)[C@H](O)CC[C@H](O)[C@@H]1CC[C@@H](CCCCCCCC2=C[C@H](C)OC2=O)O1 [GIGANTRIONENIN]
active: MDA-MB-435 0.883 µM | BT-549 0.00819 µM | NCI-H23 0.11 µM | UACC-257 0.0546 µM
inactive: MDA-N 3.91 µM | 786-0 6.21 µM | MCF7 2.28 µM | SK-MEL-28 2.94 µM | HOP-62 4.1 µM | RXF 393 19.4 µM | SF-295 1.93 µM | CCRF-CEM 1.44 µM | Malme-3M 13.7 µM | EKVX 2.97 µM | HL-60 2.17 µM | SNB-19 1.83 µM | IGROV-1 3.18 µM | TK-10 2.17 µM | UO-31 1.71 µM | MDA-MB-231 7.18 µM | SF-268 4.42 µM | KM12 3.92 µM | NCI-H460 2.91 µM | SK-MEL-2 2.24 µM | SR 1.41 µM | K562 1.15 µM | Hs-578T 3.03 µM | ACHN 1.17 µM | SN12C 5.05 µM | NCI/ADR-RES 1.24 µM | CAKI-1 15.8 µM | SW-620 3.35 µM | UACC-62 1.35 µM | HOP-92 2.47 µM | HCT-116 1.87 µM | T47D 3.43 µM | NCI-H522 7.45 µM | HT-29 2.31 µM | SNB-75 7.66 µM | RPMI-8226 2.65 µM | DU-145 3.66 µM | U-251 3.08 µM | COLO 205 2.98 µM | NCI-H226 1.48 µM | MOLT-4 2.17 µM | OVCAR-8 2.64 µM | SF-539 > 10 µM | A549 1.73 µM | A498 5.56 µM | PC-3 2.75 µM | OVCAR-3 1.99 µM | M14 13.9 µM | OVCAR-4 10.8 µM | HCC 2998 17.3 µM | LOX IMVI 1.31 µM | OVCAR-5 18.5 µM | SK-MEL-5 1.26 µM
3.85 µM: HCT-15

From ChEMBL document CHEMBL1201862, “PubChem BioAssay data set” (2004)
